Experimental data as given in ChEMBL document CHEMBL3507680, “University of Dundee, Gates Library screen for HepG2 cell viability”.

Assay: Human HepG2 cell viability assay in 384 well format
Format: toxicity, cell-based
Set-up: dose 125 nL, time 70.5 hour; concentration not given beside the values
Conditions: HepG2 cells, read-out: Inhibition

SMILES	cytotoxicity at 70.5 h [%]
CN(CC1(C)COC1)C(=O)c1cc(-c2cnn(C)c2)nc2ccccc12	-6.09
CNc1cccc(CC2COCCN(C(=O)c3cccnc3)C2)n1 (stereo unspecified)	-3.83
O=C(c1cncs1)N1CCOCC(Cc2ccncn2)C1 (stereo unspecified)	-7.66
CC1(C(=O)N2CCN(c3cnccn3)CC2)CNCCO1 (stereo unspecified)	28.1
CCn1ncc(S(=O)(=O)N[C@@H]2CC[C@@H](n3ccnc3)[C@@H]2O)c1C	-10.4
COCCNc1ncc(-c2cc(C)no2)c(-c2ccco2)n1	8.77
CCOCCCNc1ncc(-c2onc(C)c2C)c(-c2ccco2)n1	-10.1
Cc1noc(-c2cnc(NCC3CCCO3)nc2-c2ccco2)c1C (stereo unspecified)	-7.96
Cc1noc(-c2cnc(NC3CC3)nc2-c2ccco2)c1C	-14.9
Cc1c[nH]c(C2CCCN2C(=O)CCc2c(C)n[nH]c2C)n1 (stereo unspecified)	-11.3
CNC(=O)CCc1cc(C)nc(C2CCN(CC(=O)N(C)C)CC2)c1	-6.28
CN(C)c1cncc(C2CCCN(c3cnccn3)C2)n1 (stereo unspecified)	-6.42
c1cncc(CN2CCC(c3csc4nccn34)CC2)c1	-4.71
O=S(=O)(N1CCOCC1)N1CCCC(c2ccccn2)C1 (stereo unspecified)	-8.61
Cc1c[nH]nc1C1CCN(c2cnccn2)C1 (stereo unspecified)	5.06
CNC(=O)CCc1cc(C)nc(C2CCN(c3cnccn3)CC2)c1	0.777
CCN(CC)C(=O)CN1CCCC1c1nc(C)c2c(n1)N(C)C(=O)CC2 (stereo unspecified)	-7.02
O=C(C1CC1)N1C[C@H]2CCCN(S(=O)(=O)c3cccc(F)c3)[C@H]2C1	3.8
CSc1nnc(CNC(=O)Nc2ccccc2F)n1C	-7.23
CCn1c(SC)nnc1C1CCN(C(=O)N2CCCC2)CC1	-4.95
CSc1nnc(C2CCN(C(=O)N3CCOCC3)CC2)n1C(C)C	7.97

SMILES	cytotoxicity at 70.5 h [%]
CS(=O)(=O)c1cc(Cl)cnc1C1CCN(C(=O)C2CCCO2)CC1 (stereo unspecified)	-5.11
Cn1cc(C2=NOC(C(=O)NC3(c4ccccc4)CCCC3)C2)cn1 (stereo unspecified)	-3.59
Cc1ccc(S(=O)(=O)N2CC[C@@H]3C[C@H](NC(=O)c4n[nH]cc4Cl)[C@@H]32)cc1	-1.23
Cc1cnc(-c2nc(C3CCCN(Cc4cccs4)C3)no2)cn1 (stereo unspecified)	23.7
CC(C)C(=O)N1CCCC([C@@H]2C[C@H](C(F)F)n3ncnc3N2)C1 (stereo partly specified)	-3.96
COCC(=O)N[C@@H]1CN(Cc2c[nH]nc2-c2cccs2)C[C@H]1O	-2.93
COc1ccc(CC(=O)N2CCN(Cc3ccco3)C[C@@H]2C)cc1	-7.32
COc1ccc(CC(=O)N2CCN(Cc3ccco3)C[C@@H]2C)cc1OC	-3.94
COc1ccccc1-c1ccc(C2CCCN(C(C)=O)C2)nc1 (stereo unspecified)	-0.199
c1cc(C2CN(C3CCCC3)C2)n[nH]1	-1.02
CCN(Cc1ccncc1)c1cc(C2CCN2C(C)=O)nc(C)n1 (stereo unspecified)	-1.55
CC(=O)N1CCC(C)(c2cc(C(=O)NCC(C)(C)C)nc(C)n2)CC1	9.62
Cc1nc(CN2CCCC(c3cnccn3)C2)cs1 (stereo unspecified)	-2.76
CC(C)c1cc(C(=O)N2CCC3(CCc4ccccc4C(=O)N3)C2)on1 (stereo unspecified)	-2.23
CC(NC(=O)CCn1c(=O)oc2ccccc21)c1ccccn1 (stereo unspecified)	-2.59
Cc1cccc(-c2nccnc2C2CCCN(C)C2)c1C (stereo unspecified)	18.2
CC(=O)NCC(=O)N1CCCC1c1ccc(CN2CCOCC2)cn1 (stereo unspecified)	-4.76
CC(=O)N1CCCC1c1ccc(CN2CCOCC2)cn1 (stereo unspecified)	16.7
CC1(Cc2ccc(F)cc2)Cc2cc(C(=O)NCCO)ccc2O1 (stereo unspecified)	-0.493
Cc1csc(NC(=O)C2(C)CN(C)CCO2)n1 (stereo unspecified)	1.56
O=C(c1cccnc1)N1CCCC(c2ccnc3nccn23)C1 (stereo unspecified)	7.06

SMILES	cytotoxicity at 70.5 h [%]
Cc1c[nH]c(C2COCCN2C(=O)CCc2c(C)n[nH]c2C)n1 (stereo unspecified)	-9.97
Cc1cc(N2CCCC2c2cnccn2)ncn1 (stereo unspecified)	-5.35
CCc1nnc(Nc2cccc(C3CCN(CCO)CC3)n2)s1	7.17
Cc1c[nH]nc1C1CCN(S(=O)(=O)N(C)C)CC1	0.689
CN(C)C(=O)C1CN(Cc2cscn2)CCN(S(C)(=O)=O)C1 (stereo unspecified)	7.94
CN1CCC(Cc2cc(Nc3ncccn3)ncn2)CC1	-4.15
Cc1nn(C)cc1CN1CCC(C2Nc3ccccc3S(=O)(=O)N2)CC1 (stereo unspecified)	-12.8
O=C(CCC1CCCC1)N1CCC(c2ncc3c(n2)CCNC3)CC1	11.5
CN(CC1(O)CCCN(c2ccccn2)C1)C(=O)Cc1ccsc1 (stereo unspecified)	-9.68
Cc1nc(NC2CCCC2)cc(C2CCN2C(=O)c2ccccc2)n1 (stereo unspecified)	14.2
CN1CCCC1c1cccc(Cc2ccccc2F)n1 (stereo unspecified)	0.232
c1cncc(C2=NOC3(CCN(Cc4c[nH]c5ccccc45)CC3)C2)c1	5.06
c1ccc(C2=NOC3(CCN(Cc4c[nH]c5ccccc45)CC3)C2)cc1	11.1
CN1CC(=O)N(c2cccnc2)Cc2c(NC3CC3)ncnc21	-0.235
CC(C)CN1CCCC(c2nc(O)c3cc(F)ccc3n2)C1 (stereo unspecified)	1.3
Cc1ccc2nc(C3CCCN(CC(C)C)C3)nc(O)c2c1 (stereo unspecified)	-2.98
CCN1CCCC(c2nc(O)c3cc(C)ccc3n2)C1 (stereo unspecified)	-8.23
O=C(c1ccc2c(c1)OCO2)N1CCC(C(=O)O)(c2ccccc2)CC1	-11.1
CC(C)C1=NOC2(CCN(S(C)(=O)=O)CC2)C1	-12.4
COc1ccccc1-c1cc(C(=O)N2CCCC2)c2cnn(C)c2n1	-5.55
NCCC(=O)N1CCC2(CC1)CN(C(=O)c1ccc(Cl)cc1)CCO2	-12.1

SMILES	cytotoxicity at 70.5 h [%]
NCCC(=O)N1CCC2(CC1)CN(C(=O)Cc1ccc(Cl)cc1)CCO2	-14.3
CN(C)C(=O)C1CCc2nnc(C(C)(C)C)n21 (stereo unspecified)	-3.32
CN(C)C(=O)c1cc(-c2ccc(S(C)(=O)=O)cc2)c2cnn(C)c2n1	-7.12
Cc1cc(C(=O)NCc2ccc(F)cc2)c2c(C3CCNC3)noc2n1 (stereo unspecified)	-7.85
CC1(C(=O)NCc2cc(F)cc(F)c2)CCOCC1	-6.71
O=C(NC1CC1)C1CCc2nnc(C3CC3)n21 (stereo unspecified)	-10.1
O=C1CC2(CCN(C(=O)c3ccccn3)C2)Nc2ccccc2N1 (stereo unspecified)	-14.7
c1c[nH]c2nc(C3CCNC3)nc-2c1 (stereo unspecified)	-17.5
COCCNc1cc(C2CCCNC2)ccn1 (stereo unspecified)	-7.3
CN(C)[C@@H]1CN(Cc2cccnc2)C[C@H]1c1cn(C)c2ccccc12	-2.36
Cc1nn(C)cc1S(=O)(=O)NCC(c1ccccc1)N1CCCCCC1 (stereo unspecified)	17.9
Cc1cnc(-c2nc(C3CCCN(Cc4ccccc4C)C3)no2)cn1 (stereo unspecified)	21.7
Cc1cccc(CNc2cc(C3CCCNC3)ccn2)n1 (stereo unspecified)	-7.94
Cc1noc2nc(C3CCN(CC4=CCCOC4)CC3)cc(C(F)F)c12	-7.18
Cc1ncc(CN2CCCC(O)(c3ccc(F)cc3)CC2)n1C (stereo unspecified)	-5.42
Cc1nc[nH]c1CN(Cc1ccccc1F)C1CC(C)(C)NC(C)(C)C1	-2.5
CC1(C)CC(N(Cc2ccccc2)Cc2ncc[nH]2)CC(C)(C)N1	-1.78
CC1(C)CC(N(Cc2ccccc2)Cc2c[nH]cn2)CC(C)(C)N1	2.11
